Measured values as given in patent US11286236B2, “Compound, agent and composition for the suppression of cancer growth” (Vector Vitale IP LLC, priority 2018, dated 2022).

How the values were obtained:
[1] = test system: Mouse B16 melanoma cells (MM-4 cell line); assay: Cytotoxic/cytostatic activity of E2+85Rbe and antitumor drug added simultaneously; type: cell-based
Experimental: The effects of the complex action of various doses of the investigated substances were evaluated using the concept of synergistic, additive and antagonistic effects of the drugs. The mathematics are detailed below. […] The effects were calculated using the Chou-Talalay method according to the following equation (“CI” refers to the “combination index”) (see T.-C. […] Where both the ^85Rb-enriched rubidium salt (referred to as “E2+^85Rbe”) and an AD were administered, they were administered simultaneously.

[2] = test system: Mouse melanoma cells (MM-4 cell line); assay: Cytotoxic effect of E2+85Rbe and antitumor drug added 24 hours apart; type: cell-based
Experimental: The effectiveness of the method of the invention that comprises administering antitumor drugs and ^85Rb-enriched rubidium salt of N-benzoyl-N-(4-toluenesulfonyl)-o-phenylenediamine of formula I was measured in the experiment. […] Both orders were tested: AD administered first (Scheme 2, below), and AD administered second (Scheme 1, below).
Materials and Methods: Mouse melanoma cells (MM-4 cell line) were seeded into 96-well plates (TPP, Italy), in DMEM (Biowest, France) supplemented with 10% newborn calf serum (Biowest, France) and […] gentamicin (Sigma, USA) at a seeding density of 5×10^4 cells/ml. The cells were then cultured in an incubator with a humidified atmosphere of 5% CO2 in air at 37° C. The experiment was carried out in accordance with the three schemes given below. The experiment was started 24 hours after the cells were seeded. For this purpose, the agents used in the method were introduced into the appropriate wells. The following schemes of introduction were used for the study:
Scheme 1) The ^85Rb-enriched rubidium salt of N-benzoyl-N′-(4-toluenesulfonyl)-o-phenylenediamine of formula I was introduced at the first stage in the following amounts: 2.0 μg/ml, 1.0 μg/ml, 0, 5 μg/ml, and one antitumor drug was introduced at the second stage (after 24 hours).
Scheme 2) An AD was introduced at the first stage at doses as indicated in Scheme 1 above and ^85Rb-enriched rubidium salt of N-benzoyl-N′-(4-toluenesulfonyl)-o-phenylenediamine of formula I was introduced at the second stage (after 24 hours) at the following doses: 2.0 μg/ml, 1.0 μg/ml, 0.5 μg/ml.
After all the agents were added into the wells, the cells were incubated at 37° C. and 5% CO2 for another 72 hours (96 hours in total after the cells were seeded).
As in example 2, the cytotoxic effect was determined as the percentage of the cell number with respect to the control after their treatment in accordance with the claimed method. The effects of the drugs were evaluated visually, which allowed us to examine the morphological pattern of the cytotoxic action of the drugs, and by staining the cells with crystal violet, followed by OD measurement at an excitation wavelength of 540 nm using a MultiSkan microplate spectrophotometer.
The effects of the complex action of various doses of the investigated substances were evaluated using the concept of synergistic, additive and antagonistic effects of the drugs, as for Example 2, and calculating CI as described in Example 2.
Each table sets forth the % of MM-4 cells that survived in the presence of the drug doses indicated in the in vitro experiments described above, expressed as a percentage of the cells in the control wells.

## COc1cccc2c1C(=O)c1c(O)c3c(c(O)c1C2=O)C[C@@](O)(C(=O)CO)C[C@@H]3O[C@H]1C[C@H](N)[C@H](O)[C@H](C)O1 [doxorubicin]
[1]; doxorubicin 150 ng/ml alone
  % surviving MM-4 cells: 14.4 ± 1.1%
[1]; doxorubicin 175 ng/ml alone
  % surviving MM-4 cells: 13 ± 0.1%
[1]; doxorubicin 200 ng/ml alone
  % surviving MM-4 cells: 9.1 ± 1.1%
[1]; doxorubicin 300 ng/ml alone
  % surviving MM-4 cells: 3.1 ± 0.1%
[1]; doxorubicin 500 ng/ml alone
  % surviving MM-4 cells: 0%
[2]; doxorubicin 150 ng/ml alone, first stage
  % surviving MM-4 cells: 14.4 ± 1.1%
[2]; doxorubicin 150 ng/ml alone, second stage
  % surviving MM-4 cells: 35.5 ± 0.8%
[2]; doxorubicin 175 ng/ml alone, first stage
  % surviving MM-4 cells: 13 ± 0.1%
[2]; doxorubicin 200 ng/ml alone, first stage
  % surviving MM-4 cells: 9.1 ± 1.1%
[2]; doxorubicin 200 ng/ml alone, second stage
  % surviving MM-4 cells: 24.8 ± 5.5%
[2]; doxorubicin 300 ng/ml alone, first stage
  % surviving MM-4 cells: 3.1 ± 0.1%
[2]; doxorubicin 300 ng/ml alone, second stage
  % surviving MM-4 cells: 12.2 ± 0.5%
[2]; doxorubicin 500 ng/ml alone, first stage
  % surviving MM-4 cells: 0%
[2]; doxorubicin 500 ng/ml alone, second stage
  % surviving MM-4 cells: 5.3 ± 0.9%

## CN(C)/N=N/c1[nH]cnc1C(N)=O [dacarbazine]
[1]; dacarbazine 2.5 μg/ml alone
  % surviving MM-4 cells: 21 ± 2.4%
[1]; dacarbazine 5 μg/ml alone
  % surviving MM-4 cells: 18.1 ± 0.2%
[1]; dacarbazine 10 μg/ml alone
  % surviving MM-4 cells: 11.6 ± 3%
[1]; dacarbazine 20 μg/ml alone
  % surviving MM-4 cells: 7.8 ± 0.5%
[1]; dacarbazine 40 μg/ml alone
  % surviving MM-4 cells: 3.5 ± 0.7%
[2]; dacarbazine 2.5 μg/ml alone, first stage
  % surviving MM-4 cells: 21 ± 2.4%
[2]; dacarbazine 2.5 μg/ml alone, second stage
  % surviving MM-4 cells: 40.7 ± 0.7%
[2]; dacarbazine 5 μg/ml alone, first stage
  % surviving MM-4 cells: 18.1 ± 0.2%
[2]; dacarbazine 5 μg/ml alone, second stage
  % surviving MM-4 cells: 30 ± 2.4%
[2]; dacarbazine 10 μg/ml alone, first stage
  % surviving MM-4 cells: 11.6 ± 3%
[2]; dacarbazine 10 μg/ml alone, second stage
  % surviving MM-4 cells: 19 ± 4%
[2]; dacarbazine 20 μg/ml alone, first stage
  % surviving MM-4 cells: 7.8 ± 0.5%
[2]; dacarbazine 20 μg/ml alone, second stage
  % surviving MM-4 cells: 12.9 ± 2.9%
[2]; dacarbazine 40 μg/ml alone, first stage
  % surviving MM-4 cells: 3.5 ± 0.7%
[2]; dacarbazine 40 μg/ml alone, second stage
  % surviving MM-4 cells: 8.4 ± 1.2%

## CC(=O)O[C@H]1C(=O)[C@@]2(C)[C@H]([C@H](OC(=O)c3ccccc3)[C@]3(O)C[C@H](OC(=O)[C@H](O)[C@@H](NC(=O)c4ccccc4)c4ccccc4)C(C)=C1C3(C)C)[C@]1(OC(C)=O)CO[C@@H]1C[C@@H]2O [paclitaxel]
[1]; paclitaxel 3 ng/ml alone
  % surviving MM-4 cells: 80 ± 2.3%
[1]; paclitaxel 7.5 ng/ml alone
  % surviving MM-4 cells: 33.4 ± 1.4%
[1]; paclitaxel 30 ng/ml alone
  % surviving MM-4 cells: 7 ± 0.8%
[1]; paclitaxel 3 μg/ml alone
  % surviving MM-4 cells: 1.9 ± 0.2%
[2]; paclitaxel 3 ng/ml alone, first stage
  % surviving MM-4 cells: 80 ± 2.3%
[2]; paclitaxel 3 ng/ml alone, second stage
  % surviving MM-4 cells: 87.7 ± 6.7%
[2]; paclitaxel 7.5 ng/ml alone, first stage
  % surviving MM-4 cells: 33.4 ± 1.4%
[2]; paclitaxel 7.5 ng/ml alone, second stage
  % surviving MM-4 cells: 49 ± 1%
[2]; paclitaxel 15 ng/ml alone, second stage
  % surviving MM-4 cells: 37 ± 4.5%
[2]; paclitaxel 30 ng/ml alone, first stage
  % surviving MM-4 cells: 7 ± 0.8%
[2]; paclitaxel 30 ng/ml alone, second stage
  % surviving MM-4 cells: 29.2 ± 4.4%
[2]; paclitaxel 3 μg/ml alone, first stage
  % surviving MM-4 cells: 1.9 ± 0.2%

## CCC1=C[C@@H]2CN(C1)Cc1c([nH]c3ccccc13)[C@@](C(=O)OC)(c1cc3c(cc1OC)N(C)[C@H]1[C@@](O)(C(=O)OC)[C@H](OC(C)=O)[C@]4(CC)C=CCN5CC[C@]31[C@@H]54)C2 [vinorelbine]
[1]; vinorelbine 1 ng/ml alone
  % surviving MM-4 cells: 10 ± 0.1%
[1]; vinorelbine 5 ng/ml alone
  % surviving MM-4 cells: 9.5 ± 0.5%
[1]; vinorelbine 25 ng/ml alone
  % surviving MM-4 cells: 2 ± 0.8%
[1]; vinorelbine 50 ng/ml alone
  % surviving MM-4 cells: 2 ± 1%
[1]; vinorelbine 200 ng/ml alone
  % surviving MM-4 cells: 1%
[2]; vinorelbine 1 ng/ml alone, first stage
  % surviving MM-4 cells: 10 ± 0.1%
[2]; vinorelbine 1 ng/ml alone, second stage
  % surviving MM-4 cells: 26 ± 2.5%
[2]; vinorelbine 5 ng/ml alone, first stage
  % surviving MM-4 cells: 9.5 ± 0.5%
[2]; vinorelbine 5 ng/ml alone, second stage
  % surviving MM-4 cells: 17.9 ± 0.9%
[2]; vinorelbine 25 ng/ml alone, first stage
  % surviving MM-4 cells: 2 ± 0.8%
[2]; vinorelbine 25 ng/ml alone, second stage
  % surviving MM-4 cells: 7.9 ± 0.5%
[2]; vinorelbine 50 ng/ml alone, first stage
  % surviving MM-4 cells: 2 ± 1%
[2]; vinorelbine 50 ng/ml alone, second stage
  % surviving MM-4 cells: 6.4 ± 0.4%
[2]; vinorelbine 200 ng/ml alone, first stage
  % surviving MM-4 cells: 1%
[2]; vinorelbine 200 ng/ml alone, second stage
  % surviving MM-4 cells: 5.6 ± 0.6%
